Several values for one entry are separate records, joined by “and”; a condition that tells them apart may be missing. Equal entries are not always repeated. Where two headings read alike, the source gives them in different places.
Legend:
[1] = tested on: SARS-CoV-2; test: microbe, parasite or virus in culture; format: cell-based; conditions: for EC50: Severe acute respiratory syndrome coronavirus 2, 60 h, read-out: half maximal effective concentration (EC50), 50% CPE inhibition
[2] = tested on: SARS-CoV-2; format: cell-based
[3] = tested on: Vero CCL81 cells
[4] = tested on: SARS-CoV-2; format: cell-based; remark: listed apart in the source
[5] = tested on: SARS-CoV-2; format: cell-based; remark: listed apart in the source
[6] = tested on: SARS-CoV-2; format: cell-based; remark: listed apart in the source
[7] = tested on: SARS-CoV-2; format: cell-based; remark: listed apart in the source
[8] = tested on: SARS-CoV-2; format: cell-based; remark: listed apart in the source
[9] = tested on: HEK293T; test: MTT assay in HEK293T; format: cell-based, human; conditions: 10 µM and 32 µM
[10] = tested on: HuH7.5; test: MTT assay in HuH7.5; format: cell-based, human; conditions: HuH7.5, 10 µM and 32 µM
[11] = tested on: Caco-2; test: MTT assay in Caco-2; format: cell-based, human; conditions: Caco-2, 10 µM and 32 µM
[12] = tested on: Calu-3; test: MTT assay in Calu-3; format: cell-based, human; conditions: Calu-3, 10 µM and 32 µM
[13] = tested on: SARS-CoV-2 B.1; format: cell-based
[14] = tested on: SARS-CoV-2
[15] = tested on: intracellular cholesterol traffic; format: cell-based, African green monkeys
[16] = tested on: HEK293T cells; format: cell-based, human
[17] = Pharmacokinetics in mice; format: in vivo, CD1 mice
Protocol: In vivo pharmacokinetics assessment of LNB167 was performed at the Center of Innovation and Preclinical Studies (CIEnP, Brazil) under contract. LNB167 was tested in adult male CD1 mice (n = 5) bred under Specific Pathogen Free conditions at doses of 60 mg/kg (p.o.) or 6 mg/kg (I.V.). Results were reported according to ARRIVE (Animal Research Reporting In Vivo Experiments) [[22–24]]. The pharmacokinetics parameters were determined using the software Phoenix® WinNonlin® (version 7.0).

[18] = Potential toxicity of LNB167 in mice; format: in vivo, FVB male mice; conditions: oral gavage
Protocol: Adult FVB male mice bred and maintained at the Animal Facility of LOM at LNBio/CNPEM were weighed and divided into three groups (n = 5): vehicle (5% ethanol, 45% PEG400, 5% TWEEN®80, 45% saline), LNB167 60 mg/kg, and LNB167 300 mg/kg. Mice received one dose daily for 6 days by oral gavage. Animals were weighed and monitored daily for signs of potential compound toxicity including loss of movement, ruffled fur, ear position, eye shape, and death.

[19] = tested on: SARS-CoV-2; conditions: in vivo

## C[C@]12CC[C@H](O)CC1CCC1C2CC[C@]2(C)C(=O)[C@H](Br)CC12 (some centres unmarked) [16a-bromoepiandrosterone, reference compound]
[1]
  cytoprotective activity against SARS-CoV-2: did not display cytoprotective activity

## CCN(CC)CCCC(C)Nc1ccnc2cc(Cl)ccc12 (centres unmarked) [Chloroquine, reference compound]
[1]
  EC50: 5.9 µM

## C[C@]12CC[C@H](O)C[C@@H]1CC[C@@H]1[C@@H]2CC[C@]2(C)C(=O)CC[C@@H]12 [Epiandrosterone, reference compound]
[1]
  cytoprotective activity against SARS-CoV-2: did not display cytoprotective activity

## C[C@]12CC[C@H](OCCS(=O)(=O)N3CCOCC3)CC1CCC1C2CC[C@]2(C)C(=O)CCC12 (some centres unmarked) [FFNBio41]
[1]
  EC50: 5 µM
[2]
  effect on viral load assessed by plaque assay: no effect
[3]
  toxicity, MTT assay: not cytotoxic

## CN1CCN(CC(=O)O[C@H]2CC[C@@]3(C)C(CCC4C3CC[C@]3(C)C(=O)CCC43)C2)CC1 (some centres unmarked) [FFNBio42]
[1]
  EC50: 4.7 µM
[2]
  fold reduction in infectious virus (plaque assay) vs vehicle-treated control: 10 fold
[4]
  fold reduction in viral RNA levels (RT-qPCR) vs vehicle-treated control: 10 fold
[3]
  toxicity, MTT assay: not cytotoxic

## C[C@]12CC[C@H](OC(=O)CN3CCOCC3)CC1CCC1C2CC[C@]2(C)C(=O)CCC12 (some centres unmarked) [LNB149]
[1]
  half maximal effective concentration (EC50), 50% CPE inhibition: mid micromolar range

## C[C@]12CC[C@H](OC[C@@H](O)CN3CCOCC3)CC1CCC1C2CC[C@]2(C)C(=O)CCC12 (some centres unmarked) [LNB166]
[1]
  half maximal effective concentration (EC50), 50% CPE inhibition: mid micromolar range

## CN1CCN(C[C@H](O)CO[C@H]2CC[C@@]3(C)C(CCC4C3CC[C@]3(C)C(=O)CCC43)C2)CC1 (some centres unmarked) [LNB167]
[1]
  EC50: 0.9 µM
[2]
  effect on viral load assessed by plaque assay: potent inhibition of SARS-CoV-2 replication
  fold reduction in infectious virus (plaque assay) vs vehicle-treated control: 1000 fold
[4]
  fold reduction in viral RNA levels (RT-qPCR) vs vehicle-treated control: ~100 fold
[5]
  effect on levels of viral RNA (RT-qPCR): did not reduce levels of viral RNA
[6]
  fold reduction in viral load (RT-qPCR, viral RNA): ≤ 1000 fold
[7]
  effect on SARS-CoV-2 viral load: no effect
[8]
  effect on SARS-CoV-2 viral load: no effect
[9]
  toxicity, MTT assay: not toxic
[10]
  toxicity, MTT assay: not toxic
[11]
  toxicity, MTT assay: not toxic
[12]
  toxicity, MTT assay: not toxic
[13]
  fold reduction in infectious viral progeny (plaque assay), time of addition: up to 100 fold
  fold reduction in viral load (RT-qPCR), time of addition: approximately 10 fold
  time of addition after infection giving maximum antiviral activity: ≤ 8 h
[14]
  virucidal activity against SARS-CoV-2: neither LNB167 nor LNB169 were virucidal
[15]
  cholesterol distribution, filipin III staining: formation of puncta that were identical to those observed in U18666A-treated cells
[16]
  up-regulated pathways (RNASeq), SARS-CoV-2-infected cells: upregulation of multiple pathways involving metabolism and biosynthesis of both membrane lipids and cholesterol
  up-regulated pathways (RNASeq), non-infected cells: upregulation of membrane lipids and cholesterol metabolic and biosynthetic pathways
[17]; male, CD1, mouse, plasma, oral, 60 mg/kg p.o. (6 mg/kg I.V.)
  bioavailability: 66.3%
[17]; male, CD1, mouse, plasma, po, single dose of 60 mg/kg given orally
  half-life: 2.67 h
[17]; single dose of 60 mg/kg given orally
  volume of distribution: 63.17 L/kg
[17]; single dose of 60 mg/kg given orally, 60 mg/kg
  maximum plasma concentration: 498.69 ng/ml and 1.1 µM
[18]; 60 mg/Kg once a day for 6 days
  signs of toxicity: No signs of toxicity
[18]; 300 mg/Kg once a day for 6 days
  signs of toxicity: moderate weight loss and ruffled fur
[3]; 10 µM and 32 µM, Vero CCL81
  toxicity, MTT assay: not cytotoxic
[19]
  viral load recovered from infected mouse lungs (plaque assay or RT-qPCR): did not reduce the viral load
[19]; mouse
  histological analysis of lung sections: alterations in tissue architecture that were more pronounced in the context of SARS-CoV-2 infection
  protection from disease development induced by SARS-CoV-2: did not protect from disease development
[19]; mouse, 120 mg/kg
  average weight loss: 15%

## C[C@]12CC[C@H](OC[C@H](O)CN3CCOCC3)CC1CCC1C2CC[C@]2(C)C(=O)CCC12 (some centres unmarked) [LNB168]
[1]
  half maximal effective concentration (EC50), 50% CPE inhibition: mid micromolar range

## CN1CCN(C[C@@H](O)CO[C@H]2CC[C@@]3(C)C(CCC4C3CC[C@]3(C)C(=O)CCC43)C2)CC1 (some centres unmarked) [LNB169]
[1]
  EC50: 3.8 µM
[2]
  effect on viral load assessed by plaque assay: potent inhibition of SARS-CoV-2 replication
  fold reduction in infectious virus (plaque assay) vs vehicle-treated control: 1000 fold
[4]
  fold reduction in viral RNA levels (RT-qPCR) vs vehicle-treated control: ~100 fold
[5]
  effect on levels of viral RNA (RT-qPCR): did not reduce levels of viral RNA
[6]
  fold reduction in viral load (RT-qPCR, viral RNA): approximately 100 fold
[7]
  effect on SARS-CoV-2 viral load: no effect
[8]
  effect on SARS-CoV-2 viral load: no effect
[9]
  toxicity, MTT assay: not toxic
[10]
  toxicity, MTT assay: not toxic
[11]
  toxicity, MTT assay: not toxic
[12]
  toxicity, MTT assay: not toxic
[13]
  fold reduction in infectious viral progeny (plaque assay), time of addition: up to 100 fold
  fold reduction in viral load (RT-qPCR), time of addition: approximately 10 fold
  time of addition after infection giving maximum antiviral activity: ≤ 8 h
[14]
  virucidal activity against SARS-CoV-2: neither LNB167 nor LNB169 were virucidal
[3]; 10 µM and 32 µM, Vero CCL81
  toxicity, MTT assay: not cytotoxic

## CN1CCN(CCC(=O)O[C@H]2CC[C@@]3(C)C(CCC4C3CC[C@]3(C)C(=O)CCC43)C2)CC1 (some centres unmarked) [LNB171]
[1]
  half maximal effective concentration (EC50), 50% CPE inhibition: mid micromolar range
[2]
  effect on viral load assessed by plaque assay: no effect
[4]
  effect on viral load assessed by RT-qPCR: no effect
[3]
  toxicity, MTT assay: not cytotoxic

## CCN(CC)CCO[C@H]1CC[C@@]2(C)C(=CC[C@@H]3[C@@H]2CC[C@]2(C)C(=O)CC[C@@H]32)C1.Cl [U18666A, reference compound]
[15]
  cholesterol distribution, filipin III staining: formation of puncta inside cells

Reference: paper PMC9235892 (Virulence, 2022)
